According to patent publication US11542297B2, “Compositions and methods for treating CNS disorders” (Sage Therapeutics, Inc., priority 2014, dated 2023):

Experiments:
[1] = target: rat brain cortical membranes ([35S]-TBPS binding, GABA receptor complex); experiment: Steroid inhibition of [35S]-TBPS binding; conditions: in the presence of 5 μM GABA, read-out: 35S-TBPS Radioligand Displacement (IC50)
Experimental: TBPS binding assays using rat brain cortical membranes in the presence of 5 μM GABA has been described (Gee et al, J. Pharmacol. Exp. Ther. 1987, 241, 346-353; Hawkinson et al, Mol. Pharmacol. 1994, 46, 977-985; Lewin, A. H et al., Mol. Pharmacol. 1989, 35, 189-194).
Briefly, cortices are rapidly removed following decapitation of carbon dioxide-anesthetized Sprague-Dawley rats (200-250 g). The cortices are homogenized in 10 volumes of […] using a glass/teflon homogenizer and centrifuged at 1500×g for 10 min at 4° C. The resultant supernatants are centrifuged at 10,000×g for 20 min at 4° C. to obtain the P2 pellets. The P2 pellets are resuspended in 200 mM NaCl/50 mM Na—K phosphate pH 7.4 buffer and centrifuged at 10,000×g for 10 min at 4° C. This washing procedure is repeated twice and the pellets are resuspended in 10 volumes of buffer. Aliquots (100 μL) of the membrane suspensions are incubated with 3 nM [^35S]-TBPS and 5 μL aliquots of test drug dissolved in dimethyl sulfoxide (DMSO) (final 0.5%) in the presence of 5 μM GABA. The incubation is brought to a final volume of 1.0 mL with buffer. […] Following a 90 min incubation at room temp, the assays are terminated by filtration through glass fiber filters (Schleicher and Schuell No. 32) using a cell harvester (Brandel) and rinsed three times with ice-cold buffer. Filter bound radioactivity is measured by liquid scintillation spectrometry. Non-linear curve fitting of the overall data for each drug averaged for each concentration is done using Prism (GraphPad).
Various compounds are or can be screened to determine their potential as modulators of [^35S]-TBPS binding in vitro. These assays are or can be performed in accordance with the above discussed procedures.

α1β2γ2 GABAA receptors = α1β2γ2 GABAA receptors (Homo sapiens (Human), UniProt P14867+P47870); experiment: Patch clamp electrophysiology of recombinant α1β2γ2 GABAA receptors (Qpatch in Ltk cells); format: cell-based; conditions: 10 μM test article, potentiation of GABA EC20 (2 μM) current
Experimental: Cellular electrophysiology is used to measure the pharmacological properties of our GABAA receptor modulators in heterologous cell systems. […] LTK cells are stably transfected with the α1β2γ2 subunits of the GABA receptor and CHO cells are transiently transfected with the α4β3δ subunits via the Lipofecatamine method. Cells were passaged at a confluence of about 50-80% and then seeded onto 35 mm sterile culture dishes containing 2 ml culture complete medium without antibiotics or antimycotics. Confluent clusters of cells are electrically coupled (Pritchett et al., Science, 1988, 242, 1306-1308).
Whole cell currents were measured with HEKA EPC-10 amplifiers using PatchMaster software or by using the high throughput QPatch platform (Sophion). […] In some cases 0.005% cremophor was also added. Intracellular (pipette) solution contained: KCl 130 mM, MgCl2 1 mM, Mg-ATP 5 mM, HEPES 10 mM, EGTA 5 mM, pH 7.2. […] For manual patch clamp recordings, cell culture dishes were placed on the dish holder of the microscope and continuously perfused (1 ml/min) with bath solution. […] For experiments using the QPatch system, cells were transferred as suspension to the QPatch system in the bath solution and automated whole cell recordings were performed.
Cells were voltage clamped at a holding potential of −80 mV. […]

C[C@@]1(O)CC[C@@]2(C)[C@H](CC[C@@H]3[C@@H]2CC[C@]2(C)[C@@H](C(=O)Cn4cc(C#N)cn4)CC[C@@H]32)C1 [Compound 10, 1-(2-((3R,5R,8R,9S,10S,13S,14S,17S)-3-hydroxy-3,10,13-trimethylhexadecahydro-1H-cyclopenta[a]phenanthren-17-yl)-2-oxoethyl)-1H-pyrazole-4-carbonitrile]
IC50 [1]: < 10 nM

C[C@H](C(=O)[C@H]1CC[C@H]2[C@@H]3CC[C@@H]4C[C@](C)(O)CC[C@]4(C)[C@H]3CC[C@]12C)n1nccn1 [Compound 56, (R)-1-((3R,5R,8R,9S,10S,13S,14S,17S)-3-hydroxyl-3,10,13-trimethylhexadecahydro-1H-cyclopenta[a]phenanthren-17-yl)-2-(2H-1,2,3-triazol-2-yl)propan-1-one]
IC50 [1]: 50 to 100 nM

C[C@H](C(=O)[C@H]1CC[C@H]2[C@@H]3CC[C@@H]4C[C@](C)(O)CC[C@]4(C)[C@H]3CC[C@]12C)n1ccnn1 [Compound 58, (R)-1-((3R,5R,8R,9S,10S,13S,14S,17S)-3-hydroxy-3,10,13-trimethylhexadecahydro-1H-cyclopenta[a]phenanthren-17-yl)-2-(1H-1,2,3-triazol-1-yl)propan-1-one]
IC50 [1]: > 500 nM

C[C@@H](C(=O)[C@H]1CC[C@H]2[C@@H]3CC[C@@H]4C[C@](C)(O)CC[C@]4(C)[C@H]3CC[C@]12C)n1nc2ccccc2n1 [Compound 61, (S)-2-(2H-benzo[d][1,2,3]triazol-2-yl)-1-((3R,5R,8R,9S,10S,13S,14S, 17S)-3-hydroxy-3,10,13-trimethylhexadecahydro-1H-cyclopenta[a]phenanthren-17-yl)propan-1-one]
IC50 [1]: 100 to 500 nM

C[C@@H](C(=O)[C@H]1CC[C@H]2[C@@H]3CC[C@@H]4C[C@](C)(O)CC[C@]4(C)[C@H]3CC[C@]12C)n1nnc2ccccc21 [Compound 63, (S)-2-(1H-benzo[d][1,2,3]triazol-1-yl)-1-((3R,5R,8R,9S,10S,13S,14S,17S)-3-hydroxy-3,10,13-trimethylhexadecahydro-1H-cyclopenta[a]phenanthren-17-yl)propan-1-one]
IC50 [1]: 10 to 50 nM

C[C@H](C(=O)[C@H]1CC[C@H]2[C@@H]3CC[C@H]4C[C@](C)(O)CC[C@]4(C)[C@H]3CC[C@]12C)n1cc(C#N)cn1 [Compound 80, 1-((R)-1-((3R,5S,8R,9S,10S,13S,14S,17S)-3-hydroxy-3,10,13-trimethylhexadecahydro-1H-cyclopenta[a]phenanthren-17-yl)-1-oxopropan-2-yl)-1H-pyrazole-4-carbonitrile]
IC50 [1]: 100 to 500 nM

C[C@@H](C(=O)[C@H]1CC[C@H]2[C@@H]3CC[C@H]4C[C@](C)(O)CC[C@]4(C)[C@H]3CC[C@]12C)n1cc(C#N)cn1 [Compound 81, 1-((S)-1-((3R,5S,8R,9S,10S,13S,14S,17S)-3-hydroxy-3,10,13-trimethylhexadecahydro-1H-cyclopenta[a]phenanthren-17-yl)-1-oxopropan-2-yl)-1H-pyrazole-4-carbonitrile]
IC50 [1]: 10 to 50 nM

CN(C)C(=O)c1cnn(CC(=O)[C@H]2CC[C@H]3[C@@H]4CC[C@H]5C[C@](C)(O)CC[C@]5(C)[C@H]4CC[C@]23C)c1 [Compound 86]
IC50 [1]: < 10 nM

C[C@H](C(=O)[C@H]1CC[C@H]2[C@@H]3CC[C@H]4C[C@](C)(O)CC[C@]4(C)[C@H]3CC[C@]12C)n1nccn1 [Compound 90, (R)-1-((3R,5S,8R,9S,10S,13S,14S,17S)-3-hydroxy-3,10,13-trimethylhexadecahydro-1H-cyclopenta[a]phenanthren-17-yl)-2-(2H-1,2,3-triazol-2-yl)propan-1-one]
IC50 [1]: > 500 nM

C[C@H](C(=O)[C@H]1CC[C@H]2[C@@H]3CC[C@H]4C[C@](C)(O)CC[C@]4(C)[C@H]3CC[C@]12C)n1ccnn1 [Compound 92, (R)-1-((3R,5S,8R,9S,10S,13S,14S,17S)-3-hydroxy-3,10,13-trimethylhexadecahydro-1H-cyclopenta[a]phenanthren-17-yl)-2-(1H-1,2,3-triazol-1-yl)propan-1-one]
IC50 [1]: > 500 nM

C[C@H](C(=O)[C@H]1CC[C@H]2[C@@H]3CC[C@H]4C[C@](C)(O)CC[C@]4(C)[C@H]3CC[C@]12C)n1nnc2ccccc21 [Compound 100, (R)-2-(1H-benzo[d][1,2,3]triazol-1-yl)-1-((3R,5S,8R,9S,10S,13S,14S,17S)-3-hydroxy-3,10,13-trimethylhexadecahydro-1H-cyclopenta[a]phenanthren-17-yl)propan-1-one]
IC50 [1]: > 500 nM

CC(C)(C(=O)[C@H]1CC[C@H]2[C@@H]3CC[C@H]4C[C@](C)(O)CC[C@]4(C)[C@H]3CC[C@]12C)n1nnc2ccccc21 [Compound 102, 2-(1H-benzo[d][1,2,3]triazol-1-yl)-1-((3R,5S,8R,9S,10S,13S,14S,17S)-3-hydroxy-3,10,13-trimethylhexadecahydro-1H-cyclopenta[a]phenanthren-17-yl)-2-methylpropan-1-one]
IC50 [1]: > 500 nM

C[C@@]1(O)CC[C@@]2(C)[C@H](CC[C@@H]3[C@@H]2CC[C@]2(C)[C@@H](C(=O)Cn4nc5ccc(S(C)(=O)=O)cc5n4)CC[C@@H]32)C1 [Compound 104, 1-((3R,5R,8R,9S,10S,13S,14S,17S)-3-hydroxy-3,10,13-trimethylhexadecahydro-1H-cyclopenta[a]phenanthren-17-yl)-2-(5-(methylsulfonyl)-2H-benzo[d][1,2,3]triazol-2-yl)ethanone]
IC50 [1]: < 10 nM

C[C@@]1(O)CC[C@@]2(C)[C@H](CC[C@@H]3[C@@H]2CC[C@]2(C)[C@@H](C(=O)Cn4nc5ccc(OC(F)(F)F)cc5n4)CC[C@@H]32)C1 [Compound 106]
Emax at 10 µM (α1β2γ2 GABAA receptors; read-out: GABA (α1β2γ2) Qpatch in Ltk, % efficacy at 10 μM): 100 to 500%

C[C@@]1(O)CC[C@@]2(C)[C@@H](CC[C@@H]3[C@@H]2CC[C@]2(C)[C@@H](C(=O)Cn4nnc5ccc(Cl)c(F)c54)CC[C@@H]32)C1 [Compound 113]
GABA (α1β2γ2) Qpatch in Ltk, % efficacy at 10 μM (α1β2γ2 GABAA receptors): B (“B” >100-500)

CC(C(=O)[C@H]1CC[C@H]2[C@@H]3CC[C@H]4C[C@](C)(O)CC[C@]4(C)[C@H]3CC[C@]12C)N1CCOCC1 (stereo partly drawn) [Compound 155]
IC50 [1]: > 500 nM

C[C@@]1(O)CC[C@@]2(C)[C@@H](CC[C@@H]3[C@@H]2CC[C@]2(C)[C@@H](C(=O)Cn4nc5cccc(F)c5n4)CC[C@@H]32)C1 [Compound 246]
IC50 [1]: < 10 nM

CSc1ccc2nnn(CC(=O)[C@H]3CC[C@H]4[C@@H]5CC[C@H]6C[C@](C)(O)CC[C@]6(C)[C@H]5CC[C@]34C)c2c1 [Compound 248]
IC50 [1]: < 10 nM
